Test results published in PubChem BioAssay (NCI).
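Step 1: Grow cells in 96-well plates. Step 2: Expose to compound for 48 hours at 5 concentrations. Step 3: Interpolate endpoints linearly; if unreached, use highest concentration. GI50: concentration for 50% inhibition of growth. TGI: concentration producing complete growth inhibition.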

What was measured:
Assay in all cases: growth of human tumour cells (NCI), 48 h
MDA-MB-435 = test system: MDA-MB-435
OVCAR-8 ovarian = test system: OVCAR-8 ovarian
MALME-3M melanoma = test system: MALME-3M melanoma
M14 melanoma = test system: M14 melanoma
U251 CNS = test system: U251 CNS
OVCAR-3 ovarian = test system: OVCAR-3 ovarian
K-562 leukemia = test system: K-562 leukemia
NCI-H23 lung = test system: NCI-H23 lung
HOP-92 NSCLC = test system: HOP-92 NSCLC
SK-MEL-5 melanoma = test system: SK-MEL-5 melanoma
RPMI-8226 leukemia = test system: RPMI-8226 leukemia
NCI/ADR-RES ovarian = test system: NCI/ADR-RES ovarian
A549 NSCLC = test system: A549 NSCLC
EKVX NSCLC = test system: EKVX NSCLC
SF-539 CNS = test system: SF-539 CNS

Row | SMILES | TGI (MDA-MB-435) [µM] | TGI (OVCAR-8 ovarian) [µM] | TGI (MALME-3M melanoma) [µM] | TGI (M14 melanoma) [µM] | TGI (U251 CNS) [µM] | TGI (OVCAR-3 ovarian) [µM] | TGI (K-562 leukemia) [µM] | TGI (NCI-H23 lung) [µM] | TGI (HOP-92 NSCLC) [µM] | TGI (SK-MEL-5 melanoma) [µM] | TGI (RPMI-8226 leukemia) [µM] | TGI (NCI/ADR-RES ovarian) [µM] | TGI (A549 NSCLC) [µM] | TGI (EKVX NSCLC) [µM] | TGI (SF-539 CNS) [µM] | GI50 (MDA-MB-435) [µM]
1 | CO/C(=N/N1CC1C(F)(F)F)c1ccncc1 (centres undefined) | > 100 | > 100 | > 100 | > 100 | > 100 | > 100 | > 100 | > 100 | > 100 | > 100 | > 100 | > 100 |  |  |  | 
2 | CCOC(=O)C1C(=O)CC(C)(O)C(C(=O)OCC)C1c1ccc(N(C)C)cc1 (centres undefined) | > 100 | > 100 | > 100 |  | > 100 | > 100 | > 100 | > 100 | > 100 | > 100 |  | > 100 | > 100 | > 100 |  | 
3 | N#CN=Nc1cc(Cl)c(N=NC#N)cc1Cl |  | > 100 | > 100 | > 100 | > 100 | > 100 | > 100 | > 100 | > 100 | > 100 |  |  | > 100 | > 100 | > 100 | 
4 | NC(=O)/N=C(\N)NC(=O)c1ccccc1 | > 100 | > 100 | > 100 | > 100 | > 100 | > 100 | > 100 | > 100 | > 100 | > 100 |  | > 100 | > 100 | > 100 |  | 
5 | O=C(Sc1c(-c2ccccc2)c(=O)n(-c2ccccc2)c(=S)n1-c1ccccc1)c1ccc(Cl)cc1 | > 100 | > 100 | > 100 | > 100 | > 100 | > 100 | > 100 | > 100 | > 100 |  |  | > 100 | > 100 | > 100 | > 100 | 
6 | O=C1CC2[C@@H](N3CCCC3)CCC(N1Cc1ccccc1)C2(O)O (some centres undefined) | > 100 | > 100 | > 100 | > 100 | > 100 | > 100 | > 100 | > 100 | > 100 | > 100 |  | > 100 | > 100 | > 100 | > 100 | 
7 | O=C(O)C(Cc1ccc(O)cn1)NC(=O)C(F)(F)F (centres undefined) | > 100 | > 100 | > 100 |  | > 100 | > 100 | > 100 | > 100 |  | > 100 | > 100 | > 100 | > 100 | > 100 | > 100 | 
8 | Cc1[nH]c2c(C)ccc(C)c2c1CC(=O)O | > 100 | > 100 | > 100 | > 100 | > 100 | > 100 | > 100 | > 100 |  | > 100 | 66.8 | > 100 | > 100 | > 100 | > 100 | 
9 | CC(=O)O[C@H]1CC[C@H]2[C@@H]3CCc4cc(O)c(I)cc4[C@H]3CC[C@]12C | 26.6 | 37.9 | 37 | 27.3 | 27.8 | 31.4 | > 100 | 27.4 |  | 17.2 | 41.9 | 43.2 | 29.5 | 26.8 | 29.7 | 13.1
10 | O=C1CN(c2cccc(C(F)(F)F)c2)C(=O)CN1NCNN1CC(=O)N(c2cccc(C(F)(F)F)c2)CC1=O | > 100 | > 100 |  | > 100 | > 100 |  | > 100 |  |  | > 100 | > 100 | > 100 | > 100 | > 100 | > 100 | 
11 | c1ccc(N/N=C2\CC(c3ccccc3)Oc3ccccc32)cc1 (centres undefined) | > 100 | > 100 | > 100 | > 100 | > 100 | > 100 | > 100 | > 100 | > 100 | > 100 |  | > 100 | > 100 | 83.9 | > 100 | 
12 | CC(=O)OCc1nc(C#N)c(N)o1 | > 100 |  | > 100 |  | > 100 | > 100 | > 100 | > 100 | > 100 | > 100 | > 100 |  |  | > 100 |  | 
13 | COC(=O)c1cc(C)ccc1/C=C1\Cc2cc(C)c(C)cc2C1=O |  | > 100 | > 100 | > 100 |  | > 100 | > 100 | > 100 | > 100 | > 100 | > 100 |  | > 100 | > 100 | > 100 | 
14 | Cn1c(=O)n(-c2c3ccccc3c(Cl)c3ccccc23)n(C(C)(C)C)c1=O | > 100 | > 100 | > 100 | > 100 | > 100 | > 100 | > 100 | > 100 | > 100 | > 100 |  | > 100 | > 100 | > 100 | > 100 | 
15 | CC(N)Cc1cccc(C(F)(F)F)c1 (centres undefined) |  | > 100 | > 100 | > 100 | > 100 | > 100 | > 100 | > 100 | > 100 | > 100 | > 100 |  | > 100 | > 100 | > 100 | 
16 | Cc1ccc(S(=O)(=O)Nn2c(-c3ccccc3)c(C#N)c(-c3ccc(Cl)cc3)c(C#N)c2=O)cc1 | > 100 |  |  | 41.4 | 55.1 |  | > 100 |  | 79.7 | 29.3 | 37.4 |  | > 100 |  | 55.7 | 
17 | CCSC(=Nc1ccccc1)SC |  | > 100 | > 100 | > 100 | > 100 | > 100 | > 100 | > 100 | > 100 | > 100 | > 100 |  | > 100 | > 100 | > 100 | 
